Test results as given in patent US9914908B2, “Method of introducing a toxin or dye into mammalian pluripotent cells using rBC2LCN” (National Institute of Advanced Industrial Science and …, priority 2013, dated 2018).

Assays:
Settings in all cases: read-out: dissociation constant (Kd)
[1] = biological target: T1, rBC2LCN-ETA fusion protein, rBC2LCN-(GSGGG)2-ETA (Burkholderia cenocepacia rBC2LCN, SEQ ID NO: 1, fused through spacer GSGGG, SEQ ID NO: 3, to cell-killing doma (Burkholderia cenocepacia, UniProt B4EH86)); assay: Binding affinity of rBC2LCN-ETA fusion protein to sugar chain ligands by frontal affinity chromatography; parameters: species or system Burkholderia cenocepacia / Pseudomonas aeruginosa
T1 construct: E. coli
From the text: (§1) The binding affinities of rBC2LCN-ETA and wild-type rBC2LCN to “Fucα1-2Galβ1-3GlcNAc (H type 1)” and “Fucα1-2Galβ1-3GalNAc (H type 3)” as sugar chain ligands for rBC2LCN were examined by frontal affinity chromatography (Non Patent Literature 8). The results are shown below (Table 1).

[2] = biological target: T2, rBC2LCN (recombinant BC2LCN lectin, N-terminal domain of BC2L-C protein, Burkholderia cenocepacia), wild-type, SEQ ID NO: 1 (Burkholderia cenocepacia, UniProt B4EH86); assay: Binding affinity of wild-type rBC2LCN to sugar chain ligands by frontal affinity chromatography
T2 sequence (B4EH86 1-156): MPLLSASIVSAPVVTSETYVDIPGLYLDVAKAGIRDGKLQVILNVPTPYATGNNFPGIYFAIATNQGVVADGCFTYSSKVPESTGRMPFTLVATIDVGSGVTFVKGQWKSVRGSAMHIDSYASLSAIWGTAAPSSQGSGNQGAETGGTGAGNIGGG
From the text: as §1

[3] = biological target: T3, rBC2LCN-ETA fusion protein, rBC2LCN-(GSGGG)2-ETA (Burkholderia cenocepacia rBC2LCN, SEQ ID NO: 1, fused through spacer GSGGG, SEQ ID NO: 3, to cell-killing domain of Pseudomonas aeruginosa exotoxin A, SEQ ID NO: 2) (Burkholderia cenocepacia, UniProt B4EH86); assay: Binding affinity of rBC2LCN-ETA fusion protein to sugar chain ligands by frontal affinity chromatography
T3 construct: E. coli
From the text: as §1

| Compound | Kd [1] [µM] | Kd [2] [µM] | Kd [3] [µM] |
| --- | --- | --- | --- |
| CC(=O)N[C@H]1[C@@H](Oc2ccc([N+](=O)[O-])cc2)O[C@H](CO)[C@H](O)[C@@H]1O[C@@H]1O[C@H](CO)[C@H](O)[C@H](O)[C@H]1O[C@@H]1O[C@@H](C)[C@@H](O)[C@@H](O)[C@@H]1O [H type3-pNP] | 25.4 | 32.3 |  |
| CC(=O)N[C@H]1[C@H](Oc2ccc([N+](=O)[O-])cc2)O[C@H](CO)[C@@H](O)[C@@H]1O[C@@H]1O[C@H](CO)[C@H](O)[C@H](O)[C@H]1O[C@@H]1O[C@@H](C)[C@@H](O)[C@@H](O)[C@@H]1O [H type1-pNP] |  | 9.9 | 8.3 |
| CC(=O)N[C@H]1[C@@H](Oc2ccc([N+](=O)[O-])cc2)O[C@H](CO)[C@H](O)[C@@H]1O[C@@H]1O[C@H](CO)[C@H](O)[C@H](O)[C@H]1O[C@@H]1O[C@@H](C)[C@@H](O)[C@@H](O)[C@@H]1O [H type 3, Fucα1-2Galβ1-3GalNAc] | 32.3 | 25.4 |  |
